# Measured values as given in US20230123334A1, “AMINO LIPID COMPOUND, PREPARATION METHOD THEREFOR, AND APPLICATION THEREOF” (SHENZHEN SHENXIN BIOTECHNOLOGY CO., LTD., priority 2020, published 2023).
# System: HEK293 cells
# Test: Preliminary screening as mRNA vectors, EGFP mRNA transfection of HEK293 cells
# Assay type: cell-based
# Settings: HEK293 cells, 96-well plates, EGFP mRNA 50 ng per well; percentage of GFP fluorescent cells relative to total number of cells (Hoechst)
# In short: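 Each well of HEK293 cells received 50 ng of EGFP mRNA. Efficiency was expressed as percent GFP-expressing cells over Hoechst-defined total cell number.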
row,Structure (SMILES),Absolute mRNA transfection efficiency in HEK293 cells [%]
1,CCCCCCCCCCCCN(CCCCCCCCCCCC)c1nc(NCCN(C)C)nc(N(CCCCCCCCCCCC)CCCCCCCCCCCC)n1 [2N12^2N12D1],0.1
2,CCCCCCCCCCCCN(CCCCCCCCCCCC)c1nc(NCCN2CCOCC2)nc(N(CCCCCCCCCCCC)CCCCCCCCCCCC)n1 [2N12^2N12D2],1.9
3,CCCCCCCCCCCCN(CCCCCCCCCCCC)c1nc(NCCN2CCCC2)nc(N(CCCCCCCCCCCC)CCCCCCCCCCCC)n1 [2N12^2N12D3],0.0
4,CCCCCCCCCCCCN(CCCCCCCCCCCC)c1nc(NCCN2CCCCC2)nc(N(CCCCCCCCCCCC)CCCCCCCCCCCC)n1 [2N12^2N12D4],2.6
5,CCCCCCCCCCCCN(CCCCCCCCCCCC)c1nc(NCCN2CCN(C)CC2)nc(N(CCCCCCCCCCCC)CCCCCCCCCCCC)n1 [2N12^2N12D5],2.7
6,CCCCCCCCCCCCN(CCCCCCCCCCCC)c1nc(NCCCN(C)C)nc(N(CCCCCCCCCCCC)CCCCCCCCCCCC)n1 [2N12^2N12D6],0.2
7,CCCCCCCCCCCCN(CCCCCCCCCCCC)c1nc(NCCN(CC)CC)nc(N(CCCCCCCCCCCC)CCCCCCCCCCCC)n1 [2N12^2N12D7],0.3
8,CCCCCCCCCCCCN(CCCCCCCCCCCC)c1nc(NCCCN2CCOCC2)nc(N(CCCCCCCCCCCC)CCCCCCCCCCCC)n1 [2N12^2N12D8],0.0
9,CCCCCCCCCCCCN(CCCCCCCCCCCC)c1nc(NCCCN2CCN(C)CC2)nc(N(CCCCCCCCCCCC)CCCCCCCCCCCC)n1 [2N12^2N12D9],0.0
10,CCCCCCCCCCCCN(CCCCCCCCCCCC)c1nc(NCC2CCN(C)CC2)nc(N(CCCCCCCCCCCC)CCCCCCCCCCCC)n1 [2N12^2N12D10],3.3
11,CCCCCCNc1nc(NCCCCCC)nc(NCCN(C)C)n1 [Compound N6N6D1],0.0
12,CCCCCCNc1nc(NCCCCCC)nc(NCCN2CCOCC2)n1 [Compound N6N6D2],0.0
13,CCCCCCNc1nc(NCCCCCC)nc(NCCN2CCCC2)n1 [Compound N6N6D3],0.3
14,CCCCCCNc1nc(NCCCCCC)nc(NCCN2CCCCC2)n1 [Compound N6N6D4],0.1
15,CCCCCCNc1nc(NCCCCCC)nc(NCCN2CCN(C)CC2)n1 [Compound N6N6D5],0.0
16,CCCCCCNc1nc(NCCCCCC)nc(NCCCN(C)C)n1 [Compound N6N6D6],0.0
17,CCCCCCNc1nc(NCCCCCC)nc(NCCN(CC)CC)n1 [Compound N6N6D7],0.0
18,CCCCCCNc1nc(NCCCCCC)nc(NCCCN2CCOCC2)n1 [Compound N6N6D8],0.0
19,CCCCCCNc1nc(NCCCCCC)nc(NCCCN2CCN(C)CC2)n1 [Compound N6N6D9],0.2
20,CCCCCCNc1nc(NCCCCCC)nc(NCC2CCN(C)CC2)n1 [Compound N6N6D10],0.0
21,CCCCCCCNc1nc(NCCCCCC)nc(NCCN(C)C)n1 [Compound N6N7D1],0.1
22,CCCCCCCNc1nc(NCCCCCC)nc(NCCN2CCOCC2)n1 [Compound N6N7D2],0.4

row,Structure (SMILES),Absolute mRNA transfection efficiency in HEK293 cells [%]
1,CCCCCCCNc1nc(NCCCCCC)nc(NCCN2CCCC2)n1 [Compound N6N7D3],0.0
2,CCCCCCCNc1nc(NCCCCCC)nc(NCCN2CCCCC2)n1 [Compound N6N7D4],0.0
3,CCCCCCCNc1nc(NCCCCCC)nc(NCCN2CCN(C)CC2)n1 [Compound N6N7D5],0.4
4,CCCCCCCNc1nc(NCCCCCC)nc(NCCCN(C)C)n1 [Compound N6N7D6],0.1
5,CCCCCCCNc1nc(NCCCCCC)nc(NCCN(CC)CC)n1 [Compound N6N7D7],0.0
6,CCCCCCCNc1nc(NCCCCCC)nc(NCCCN2CCOCC2)n1 [Compound N6N7D8],0.0
7,CCCCCCCNc1nc(NCCCCCC)nc(NCCCN2CCN(C)CC2)n1 [Compound N6N7D9],0.0
8,CCCCCCCNc1nc(NCCCCCC)nc(NCC2CCN(C)CC2)n1 [Compound N6N7D10],0.0
9,CCCCCCCCNc1nc(NCCCCCC)nc(NCCN(C)C)n1 [Compound N6N8D1],0.0
10,CCCCCCCCNc1nc(NCCCCCC)nc(NCCN2CCOCC2)n1 [Compound N6N8D2],0.1
11,CCCCCCCCNc1nc(NCCCCCC)nc(NCCN2CCCC2)n1 [Compound N6N8D3],0.4
12,CCCCCCCCNc1nc(NCCCCCC)nc(NCCN2CCCCC2)n1 [Compound N6N8D4],0.0
13,CCCCCCCCNc1nc(NCCCCCC)nc(NCCN2CCN(C)CC2)n1 [Compound N6N8D5],0.0
14,CCCCCCCCNc1nc(NCCCCCC)nc(NCCCN(C)C)n1 [Compound N6N8D6],0.0
15,CCCCCCCCNc1nc(NCCCCCC)nc(NCCN(CC)CC)n1 [Compound N6N8D7],0.1
16,CCCCCCCCNc1nc(NCCCCCC)nc(NCCCN2CCOCC2)n1 [Compound N6N8D8],0.0
17,CCCCCCCCNc1nc(NCCCCCC)nc(NCCCN2CCN(C)CC2)n1 [Compound N6N8D9],0.0
18,CCCCCCCCNc1nc(NCCCCCC)nc(NCC2CCN(C)CC2)n1 [Compound N6N8D10],0.0
19,CCCCCCCCCNc1nc(NCCCCCC)nc(NCCN(C)C)n1 [Compound N6N9D1],0.0
20,CCCCCCCCCNc1nc(NCCCCCC)nc(NCCN2CCOCC2)n1 [Compound N6N9D2],0.0
21,CCCCCCCCCNc1nc(NCCCCCC)nc(NCCN2CCCC2)n1 [Compound N6N9D3],0.4
22,CCCCCCCCCNc1nc(NCCCCCC)nc(NCCN2CCCCC2)n1 [Compound N6N9D4],0.3

# System: HEK293 cells
# Test: Preliminary screening as DNA vectors, GFP transfection of HEK293 cells
# Assay type: cell-based
# Settings: HEK293 cells; lipid/DOPE liposome with 75 ng plasmid DNA (psin-EGFP-IRES-Puro); number of cells expressing GFP divided by total number of nuclei (Hoechst)
# In short: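 Lipid + DOPE liposomes (NaOAc, pH 5.6) complexed w/ 75 ng psin-EGFP-IRES-Puro, 30 min RT; added to 3-5×10^4 HEK293/well, 37° C. Hoechst 0.2 μg/mL at 20-24 h, imaged after further 20-24 h. Efficiency = GFP+ cells / total nuclei.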
row,Structure (SMILES),Absolute DNA transfection efficiency in HEK293 cells [%]
1,CCCCCCCCCCCCN(CCCCCCCCCCCC)c1nc(NCCN(C)C)nc(N(CCCCCCCCCCCC)CCCCCCCCCCCC)n1 [2N12^2N12D1],0.4
2,CCCCCCCCCCCCN(CCCCCCCCCCCC)c1nc(NCCN2CCOCC2)nc(N(CCCCCCCCCCCC)CCCCCCCCCCCC)n1 [2N12^2N12D2],0.0
3,CCCCCCCCCCCCN(CCCCCCCCCCCC)c1nc(NCCN2CCCC2)nc(N(CCCCCCCCCCCC)CCCCCCCCCCCC)n1 [2N12^2N12D3],1.3
4,CCCCCCCCCCCCN(CCCCCCCCCCCC)c1nc(NCCN2CCCCC2)nc(N(CCCCCCCCCCCC)CCCCCCCCCCCC)n1 [2N12^2N12D4],0.0
5,CCCCCCCCCCCCN(CCCCCCCCCCCC)c1nc(NCCN2CCN(C)CC2)nc(N(CCCCCCCCCCCC)CCCCCCCCCCCC)n1 [2N12^2N12D5],0.0
6,CCCCCCCCCCCCN(CCCCCCCCCCCC)c1nc(NCCCN(C)C)nc(N(CCCCCCCCCCCC)CCCCCCCCCCCC)n1 [2N12^2N12D6],0.0
7,CCCCCCCCCCCCN(CCCCCCCCCCCC)c1nc(NCCN(CC)CC)nc(N(CCCCCCCCCCCC)CCCCCCCCCCCC)n1 [2N12^2N12D7],0.0
8,CCCCCCCCCCCCN(CCCCCCCCCCCC)c1nc(NCCCN2CCOCC2)nc(N(CCCCCCCCCCCC)CCCCCCCCCCCC)n1 [2N12^2N12D8],0.1
9,CCCCCCCCCCCCN(CCCCCCCCCCCC)c1nc(NCCCN2CCN(C)CC2)nc(N(CCCCCCCCCCCC)CCCCCCCCCCCC)n1 [2N12^2N12D9],0.2
10,CCCCCCCCCCCCN(CCCCCCCCCCCC)c1nc(NCC2CCN(C)CC2)nc(N(CCCCCCCCCCCC)CCCCCCCCCCCC)n1 [2N12^2N12D10],1.8
11,CCCCCCNc1nc(NCCCCCC)nc(NCCN(C)C)n1 [Compound N6N6D1],0.0
12,CCCCCCNc1nc(NCCCCCC)nc(NCCN2CCOCC2)n1 [Compound N6N6D2],0.0
13,CCCCCCNc1nc(NCCCCCC)nc(NCCN2CCCC2)n1 [Compound N6N6D3],0.2
14,CCCCCCNc1nc(NCCCCCC)nc(NCCN2CCCCC2)n1 [Compound N6N6D4],0.0
15,CCCCCCNc1nc(NCCCCCC)nc(NCCN2CCN(C)CC2)n1 [Compound N6N6D5],0.0
16,CCCCCCNc1nc(NCCCCCC)nc(NCCCN(C)C)n1 [Compound N6N6D6],0.0
17,CCCCCCNc1nc(NCCCCCC)nc(NCCN(CC)CC)n1 [Compound N6N6D7],0.0
18,CCCCCCNc1nc(NCCCCCC)nc(NCCCN2CCOCC2)n1 [Compound N6N6D8],0.0
19,CCCCCCNc1nc(NCCCCCC)nc(NCCCN2CCN(C)CC2)n1 [Compound N6N6D9],0.0
20,CCCCCCNc1nc(NCCCCCC)nc(NCC2CCN(C)CC2)n1 [Compound N6N6D10],0.0
21,CCCCCCCNc1nc(NCCCCCC)nc(NCCN(C)C)n1 [Compound N6N7D1],0.0
22,CCCCCCCNc1nc(NCCCCCC)nc(NCCN2CCOCC2)n1 [Compound N6N7D2],0.0

row,Structure (SMILES),Absolute DNA transfection efficiency in HEK293 cells [%]
1,CCCCCCCNc1nc(NCCCCCC)nc(NCCN2CCCC2)n1 [Compound N6N7D3],0.4
2,CCCCCCCNc1nc(NCCCCCC)nc(NCCN2CCCCC2)n1 [Compound N6N7D4],0.0
3,CCCCCCCNc1nc(NCCCCCC)nc(NCCN2CCN(C)CC2)n1 [Compound N6N7D5],0.0
4,CCCCCCCNc1nc(NCCCCCC)nc(NCCCN(C)C)n1 [Compound N6N7D6],0.0
5,CCCCCCCNc1nc(NCCCCCC)nc(NCCN(CC)CC)n1 [Compound N6N7D7],0.0
6,CCCCCCCNc1nc(NCCCCCC)nc(NCCCN2CCOCC2)n1 [Compound N6N7D8],0.0
7,CCCCCCCNc1nc(NCCCCCC)nc(NCCCN2CCN(C)CC2)n1 [Compound N6N7D9],0.0
8,CCCCCCCNc1nc(NCCCCCC)nc(NCC2CCN(C)CC2)n1 [Compound N6N7D10],0.0
9,CCCCCCCCNc1nc(NCCCCCC)nc(NCCN(C)C)n1 [Compound N6N8D1],0.0
10,CCCCCCCCNc1nc(NCCCCCC)nc(NCCN2CCOCC2)n1 [Compound N6N8D2],0.0
11,CCCCCCCCNc1nc(NCCCCCC)nc(NCCN2CCCC2)n1 [Compound N6N8D3],0.1
12,CCCCCCCCNc1nc(NCCCCCC)nc(NCCN2CCCCC2)n1 [Compound N6N8D4],0.0
13,CCCCCCCCNc1nc(NCCCCCC)nc(NCCN2CCN(C)CC2)n1 [Compound N6N8D5],0.0
14,CCCCCCCCNc1nc(NCCCCCC)nc(NCCCN(C)C)n1 [Compound N6N8D6],0.1
15,CCCCCCCCNc1nc(NCCCCCC)nc(NCCN(CC)CC)n1 [Compound N6N8D7],0.0
16,CCCCCCCCNc1nc(NCCCCCC)nc(NCCCN2CCOCC2)n1 [Compound N6N8D8],0.0
17,CCCCCCCCNc1nc(NCCCCCC)nc(NCCCN2CCN(C)CC2)n1 [Compound N6N8D9],0.0
18,CCCCCCCCNc1nc(NCCCCCC)nc(NCC2CCN(C)CC2)n1 [Compound N6N8D10],0.0
19,CCCCCCCCCNc1nc(NCCCCCC)nc(NCCN(C)C)n1 [Compound N6N9D1],0.0
20,CCCCCCCCCNc1nc(NCCCCCC)nc(NCCN2CCOCC2)n1 [Compound N6N9D2],0.0
21,CCCCCCCCCNc1nc(NCCCCCC)nc(NCCN2CCCC2)n1 [Compound N6N9D3],0.3
22,CCCCCCCCCNc1nc(NCCCCCC)nc(NCCN2CCCCC2)n1 [Compound N6N9D4],0.0
